Results on 31 compounds are retold here after patent US20160075653A1, “NEMATICIDAL N-(PHENYLCYCLOALKYL)CARBOXAMIDES AND N-(PHENYLCYCLOALKYL)THIOCARBOXAMIDES” (BAYER CROPSCIENCE AKTIENGESELLSCHAFT, priority 2013, published 2016).

Each structure is given as a SMILES string.

For one series, the system named is Meloidogyne incognita. The series is described as follows: Meloidogyne incognita test (MELGIN), gall formation on salad seedlings. Format: in vivo. As to conditions: application rate 20 ppm, after 14 days. In short, it runs like this:
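Sand vessels treated with acetone-formulated compound diluted in water, then inoculated with M. incognita eggs and larvae and sown with salad seeds. Root galling assessed after 14 days: 100% = no galls, 0% = galling equal to untreated plants.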

A short description of series [1]: Measurement of log P values by HPLC on reversed phase columns (methods [a] pH 2.3, [b] pH 2.7, [c] pH 7.8). It counts as physicochemical. An outline of the steps: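 Determined per EEC Directive 79/831 Annex V.A8 by reversed-phase HPLC, 10-95% acetonitrile gradient: [a] pH 2.3, 0.1% phosphoric acid; [b] LC-MS, pH 2.7, 0.1% formic acid; [c] LC-MS, pH 7.8, 0.001 molar ammonium hydrogen carbonate. Calibrated with C3-C16 alkan-2-ones by retention-time interpolation.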

The mark [2] stands for this setting: HPLC on reversed phase column, method [b], pH 2.7.
Setting [3] is: HPLC reversed phase, method [b] (pH 2.7).
The mark [4] stands for this setting: HPLC on reversed phase column, method [c], pH 7.8.

Regarding `O=C(N[C@@H]1CC[C@@H]1c1cccc(F)c1C(F)(F)F)c1nccnc1Cl` (relative stereo) [Compound 645], in the series on Meloidogyne incognita, the “nematicidal activity (percentage of gall formation; 100% = no galls)” value came out at 100%. Moreover, the logP in series [1] (setting [2]) was 2.78^[b].
As for `O=C(N[C@@H]1CC[C@@H]1c1cccc(F)c1C(F)(F)F)c1ccccc1[N+](=O)[O-]` (relative stereo) [Compound 630], the “nematicidal activity (percentage of gall formation; 100% = no galls)” value with Meloidogyne incognita is 100%. In series [1] (setting [2]), the logP was 2.94^[b].
Turning to `O=C(NC1CCCCC1c1ccc(Cl)cc1Cl)c1cccnc1C(F)(F)F` (stereo not drawn) [Compound 414], in the series with Meloidogyne incognita, the “nematicidal activity (percentage of gall formation; 100% = no galls)” value stood at 100%. Besides, in series [1] (setting [3]), the logP was 4.03^[b].
For the compound `O=C(NC1CC1c1ccc(Cl)cc1)c1ncccc1C(F)(F)F` (stereo not drawn) [Compound 462], the “nematicidal activity (percentage of gall formation; 100% = no galls)” value in the series with Meloidogyne incognita was 100%. Moreover, the logP in series [1] (setting [3]) was 2.85^[b]; in series [1] (HPLC reversed phase, method [c] pH 7.8), 2.81^[c];.
On to `O=C(NC1CCC1c1ccccc1C(F)(F)F)c1nccnc1C(F)(F)F` (stereo not drawn) [Compound 684], for which, in the series with Meloidogyne incognita, the “nematicidal activity (percentage of gall formation; 100% = no galls)” value is listed as 100%. Moreover, the logP in series [1] (setting [2]) was 3.15^[b]; in series [1] (setting [4]), 3.10^[c];.
On to `O=C(N[C@@H]1CC[C@@H]1c1cc(F)ccc1C(F)(F)F)c1ccccc1` (relative stereo) [Compound 550], for which the “nematicidal activity (percentage of gall formation; 100% = no galls)” value in the series on Meloidogyne incognita came out at 100%. Moreover, in series [1] (setting [3]), the logP was 3.15^[b].
Regarding `Cn1cc(C(=O)N[C@@H]2CC[C@@H]2c2c(F)cccc2C(F)(F)F)c(C(F)F)n1` (relative stereo) [Compound 574], the “nematicidal activity (percentage of gall formation; 100% = no galls)” value in the series on Meloidogyne incognita is listed as 100%. Also, the logP in series [1] (setting [3]) was 2.91^[b].
The like results for `Cn1cc(C(=O)NC2CCC2c2ccc(F)cc2C(F)(F)F)c(C(F)F)n1` (stereo not drawn) [Compound 485] were, in that order, 90% and 2.84^[b].
On the same counts, the results for `O=C(N[C@@H]1CC[C@H]1c1ccc(Cl)cc1Cl)c1ccccc1Cl` (relative stereo) [Compound 256] are 90% and 3.90^[b].
Turning to `O=C(N[C@@H]1CC[C@@H]1c1c(F)cccc1C(F)(F)F)c1ccccc1` (relative stereo) [Compound 551], the “nematicidal activity (percentage of gall formation; 100% = no galls)” value with Meloidogyne incognita worked out at 100%. For the same compound, the logP in series [1] (setting [3]) is 3.23^[b].
As for `O=C(N[C@@H]1CC[C@@H]1c1cccc(F)c1C(F)(F)F)c1ccc(Cl)cc1` (relative stereo) [Compound 595], the “nematicidal activity (percentage of gall formation; 100% = no galls)” value with Meloidogyne incognita was found to be 100%. For the same compound, the logP in series [1] (setting [2]) is 3.47^[b].
Consider `O=C(N[C@@H]1CC[C@@H]1c1ccccc1Cl)c1ccccc1C(F)(F)F` (relative stereo) [Compound 251], for which, in the series on Meloidogyne incognita, the “nematicidal activity (percentage of gall formation; 100% = no galls)” value was 100%. Besides, in series [1] (setting [3]), the logP is 3.23^[b].
As to `O=C(N[C@@H]1CC[C@@H]1c1ccc(F)cc1C(F)(F)F)c1cccnc1C(F)(F)F` (relative stereo) [Compound 489], the “nematicidal activity (percentage of gall formation; 100% = no galls)” value with Meloidogyne incognita was 100%. In series [1] (setting [3]), the logP is 3.02^[b].
Regarding `O=C(N[C@@H]1CC[C@@H]1c1ccccc1C(F)(F)F)c1ccccc1[N+](=O)[O-]` (relative stereo) [Compound 638], the “nematicidal activity (percentage of gall formation; 100% = no galls)” value in the series with Meloidogyne incognita was found to be 100%. Also, in series [1] (setting [2]), the logP is 2.93^[b].
Take `O=C(N[C@@H]1C[C@@H]1c1ccc(Cl)cc1Cl)c1nccnc1Cl` (relative stereo) [Compound 567]: the “nematicidal activity (percentage of gall formation; 100% = no galls)” value with Meloidogyne incognita was determined as 90%. Moreover, the logP in series [1] (setting [3]) is 2.75^[b].
The like results for `O=C(NC1CCC1c1ccccc1C(F)(F)F)c1ccccc1` (stereo not drawn) [Compound 426] were, in that order, 100% and 3.08^[b].
`O=C(N[C@@H]1C[C@@H]1c1ccc(Cl)cc1Cl)c1ncccc1Cl` (relative stereo) [Compound 649]: the “nematicidal activity (percentage of gall formation; 100% = no galls)” value in the series on Meloidogyne incognita amounted to 100%. The logP in series [1] (setting [2]) is 2.93^[b]; in series [1] (setting [4]), 2.91^[c];.
Take `O=C(N[C@@H]1CC[C@@H]1c1cc(F)ccc1C(F)(F)F)c1ccccc1[N+](=O)[O-]` (relative stereo) [Compound 540]: the “nematicidal activity (percentage of gall formation; 100% = no galls)” value in the series on Meloidogyne incognita stood at 100%. The logP in series [1] (setting [3]) was 3.07^[b].
In the case of `O=C(N[C@@H]1CC[C@@H]1c1ccccc1Cl)c1cccnc1` (relative stereo) [Compound 555], the “nematicidal activity (percentage of gall formation; 100% = no galls)” value with Meloidogyne incognita is given as 90%. Besides, the logP in series [1] (setting [3]) was 1.18^[b].
Regarding `O=C(NC1CCCC1c1ccc(Cl)cc1Cl)c1ccccc1C(F)(F)F` (stereo not drawn) [Compound 353], the “nematicidal activity (percentage of gall formation; 100% = no galls)” value with Meloidogyne incognita is 100%. Also, the logP in series [1] (setting [3]) is 4.04^[b].
For the compound `O=C(N[C@@H]1CC[C@@H]1c1ccccc1C(F)(F)F)c1cccnc1` (relative stereo) [Compound 619], the “nematicidal activity (percentage of gall formation; 100% = no galls)” value in the series on Meloidogyne incognita is listed as 90%. Also, the logP in series [1] (setting [2]) is 2.06^[b].
Take `O=C(N[C@@H]1C[C@@H]1c1ccc(Cl)cc1Cl)c1ccccc1[N+](=O)[O-]` (relative stereo) [Compound 558]: the “nematicidal activity (percentage of gall formation; 100% = no galls)” value in the series on Meloidogyne incognita was found to be 100%. The logP in series [1] (setting [3]) was 2.94^[b].
With `O=C(N[C@@H]1CC[C@@H]1c1c(F)cccc1C(F)(F)F)c1ccccc1I` (relative stereo) [Compound 542], in the series with Meloidogyne incognita, the “nematicidal activity (percentage of gall formation; 100% = no galls)” value is reported as 100%. In addition, the logP in series [1] (setting [3]) is 3.96^[b].
For the compound `CCOc1ccccc1C(=O)N[C@@H]1CCC[C@@H]1c1ccc(F)c(F)c1` (relative stereo) [Compound 115], the “nematicidal activity (percentage of gall formation; 100% = no galls)” value with Meloidogyne incognita is reported as 90%. Besides, the logP in series [1] (HPLC on reversed phase columns, method [b], pH 2.7) is 3.80^[b].
As to `O=C(N[C@@H]1CC[C@@H]1c1cc(F)ccc1C(F)(F)F)c1cccnc1C(F)(F)F` (relative stereo) [Compound 572], in the series on Meloidogyne incognita, the “nematicidal activity (percentage of gall formation; 100% = no galls)” value worked out at 100%. Also, the logP in series [1] (setting [3]) was 3.06^[b].
With `O=C(N[C@@H]1CC[C@@H]1c1c(F)cccc1C(F)(F)F)c1c(F)cccc1F` (relative stereo) [Compound 564], the “nematicidal activity (percentage of gall formation; 100% = no galls)” value with Meloidogyne incognita stood at 100%. Besides, the logP in series [1] (setting [3]) is 3.25^[b].
As for `O=C(N[C@@H]1CC[C@@H]1c1cccc(F)c1C(F)(F)F)c1ccc(Cl)cc1Cl` (relative stereo) [Compound 594], the “nematicidal activity (percentage of gall formation; 100% = no galls)” value in the series with Meloidogyne incognita stood at 90%. The logP in series [1] (setting [2]) was 3.73^[b].
On to `O=C(N[C@@H]1C[C@@H]1c1ccc(Cl)cc1Cl)c1ncccc1Br` (relative stereo) [Compound 608], for which the “nematicidal activity (percentage of gall formation; 100% = no galls)” value in the series on Meloidogyne incognita turned out to be 100%. Moreover, the logP in series [1] (setting [2]) is 2.98^[b]; in series [1] (setting [4]), 2.99^[c];.
Regarding `O=C(NC1CC1c1ccc(Cl)cc1Cl)c1cccnc1Cl` (stereo not drawn) [Compound 425], in the series on Meloidogyne incognita, the “nematicidal activity (percentage of gall formation; 100% = no galls)” value was 100%. Besides, the logP in series [1] (setting [3]) was 2.62^[b].
Regarding `O=C(N[C@@H]1CC[C@@H]1c1ccc(F)cc1C(F)(F)F)c1ccccc1Cl` (relative stereo) [Compound 509], the “nematicidal activity (percentage of gall formation; 100% = no galls)” value with Meloidogyne incognita is 100%. In addition, the logP in series [1] (setting [3]) was 3.34^[b].
Turning to `O=C(N[C@@H]1CC[C@@H]1c1c(F)cccc1C(F)(F)F)c1ncc(C(F)(F)F)cc1Cl` (relative stereo) [Compound 543], the “nematicidal activity (percentage of gall formation; 100% = no galls)” value with Meloidogyne incognita worked out at 90%. Besides, the logP in series [1] (setting [3]) is 4.13^[b].
